The record followed here is patent US20080021217A1, “HETEROCYCLIC INHIBITORS OF RHO KINASE” (priority 2006, published 2008).

Test [1] concerns the target T1, recombinant N-terminal GST-tagged human Rho kinase 1 (ROCK1, amino acids 1-535) (Homo sapiens, UniProt Q13464).
T1 construct: ROCK1, amino acids 1-535, Invitrogen Inc., cat. #PV-3691; GST (N); purchased Invitrogen Inc. PV-3691
In words: In vitro Rho kinase assay (luciferase-based ATP consumption), ROCK1. Format: biochemical. Here is the method:
(§1) Rho kinase biochemical assays described below depend on firefly luciferase-based, indirect measurement of total ATP consumption by the kinase following incubation with substrate and ATP. 25 μl of Rho kinase assay buffer (20 mM Tris-HCL [pH 7.5], 1 mM MgCl2, 0.4 mM CaCl2, 0.15 mM EGTA, 0.1 mg/ml bovine serum albumin) containing 0.82 μg/ml of recombinant N-terminal GST-tagged human Rho kinase 1 (ROCK1, amino acids 1-535, Invitrogen Inc., cat. #PV-3691) or recombinant N-terminal GST-tagged human Rho kinase 2 (ROCK2, amino acids 1-552, Invitrogen Inc., cat #PV3759), 100 μg/ml S6 peptide substrate (related to amino acids 218-249 of the human 40S ribosomal protein S6, and suitable for ROCK1 or ROCK2, e.g. Upstate/Millipore Inc., cat #12-420), and 3 µM ATP are dispensed to wells of a 384 multi-well opaque plate. The plate is centrifuged for 30 seconds at approximately 200×g. 240 nl of test compound in DMSO is dispensed to each well by passive pin transfer. The lag phase of this in vitro kinase reaction permits addition of compounds soon after the reaction initiates. The reaction is allowed to incubate at 30° C. for 2 hours. The assay plates are sealed and maintained in a humidified environment. After 2 hours, 25 μl of easyLite protein kinase assay reagent (Perkin-Elmer, Inc.) is dispensed. After an additional 10 minute incubation at room temperature (about 22° C.), luminescence activity is measured on a Molecular Devices Analyst multi-mode plate reader or other suitable plate reader. Kinase inhibition results in less ATP consumption, and therefore increased luminescence signal. Negative control activity is measured with DMSO lacking any test compound. The positive control is 2-methyl-1-(4-methylisoquinolin-5-ylsulfonyl)perhydro-1,4-diazepine hydrochloride (aka H-1152P, HCl salt). Efficacy is measured as a percentage of positive control activity. […] In some cases, kinase reactions and compound testing are performed in 1536 multi-well plates under similar conditions, with assay volumes appropriately scaled. The designated NT means the cited example was not tested.

The target in test [2] is T2, recombinant N-terminal GST-tagged human Rho kinase 2 (ROCK2, amino acids 1-552) (Homo sapiens, UniProt O75116).
T2 construct: ROCK2, amino acids 1-552, Invitrogen Inc., cat #PV3759; GST (N); purchased Invitrogen Inc. PV3759
T2 sequence (O75116 1-552): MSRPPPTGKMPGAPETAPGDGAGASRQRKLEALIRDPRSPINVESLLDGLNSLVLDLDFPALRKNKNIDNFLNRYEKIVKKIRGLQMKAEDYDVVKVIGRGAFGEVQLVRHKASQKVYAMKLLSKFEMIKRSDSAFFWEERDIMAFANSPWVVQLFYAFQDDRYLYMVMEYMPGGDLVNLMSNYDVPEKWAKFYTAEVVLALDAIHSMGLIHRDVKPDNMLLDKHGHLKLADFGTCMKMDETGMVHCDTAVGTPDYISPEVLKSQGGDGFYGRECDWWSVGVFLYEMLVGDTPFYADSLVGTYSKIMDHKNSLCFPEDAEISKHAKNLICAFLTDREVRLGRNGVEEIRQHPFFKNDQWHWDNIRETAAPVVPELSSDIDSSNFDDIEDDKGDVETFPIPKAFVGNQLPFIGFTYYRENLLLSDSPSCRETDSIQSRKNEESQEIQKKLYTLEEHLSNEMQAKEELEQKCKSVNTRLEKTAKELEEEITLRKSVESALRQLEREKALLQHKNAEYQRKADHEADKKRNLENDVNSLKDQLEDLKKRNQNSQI
In words: In vitro Rho kinase assay (luciferase-based ATP consumption), ROCK2. Format: biochemical. Here is the method:
as §1

The IC50 is the concentration at which inhibition is half-maximal.

T1 sequence (Q13464 1-535): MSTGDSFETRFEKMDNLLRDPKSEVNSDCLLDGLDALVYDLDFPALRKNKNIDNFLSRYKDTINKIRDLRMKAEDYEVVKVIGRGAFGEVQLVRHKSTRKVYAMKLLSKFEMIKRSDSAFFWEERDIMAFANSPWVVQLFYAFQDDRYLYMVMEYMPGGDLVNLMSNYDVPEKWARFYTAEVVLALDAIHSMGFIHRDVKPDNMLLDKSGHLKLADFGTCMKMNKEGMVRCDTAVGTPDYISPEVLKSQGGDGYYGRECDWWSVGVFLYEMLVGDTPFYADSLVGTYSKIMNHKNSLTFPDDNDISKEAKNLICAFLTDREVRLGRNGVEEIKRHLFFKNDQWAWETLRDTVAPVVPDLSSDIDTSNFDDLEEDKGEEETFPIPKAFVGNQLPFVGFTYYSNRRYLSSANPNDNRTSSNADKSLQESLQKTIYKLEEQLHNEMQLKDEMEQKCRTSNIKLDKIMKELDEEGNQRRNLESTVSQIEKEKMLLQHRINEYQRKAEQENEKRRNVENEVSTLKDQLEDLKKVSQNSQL

Turning to `O=C(NCc1nc(-c2ccncc2)n[nH]1)c1n[nH]c2ccccc12` [Example 33, N-((3-(Pyridin-4-yl)-1H-1,2,4-triazol-5-yl)methyl)-1H-indazole-3-carboxamide], the IC50 was greater than 5 µM in test [1] and less than 5 µM in test [2].
In the case of `CC(C)(C)C(=O)Oc1ccc(C(=O)NCc2nc(-c3ccncc3)n[nH]2)c(OC(=O)C(C)(C)C)c1` [Example 37, 4-((3-(Pyridin-4-yl)-1H-1,2,4-triazol-5-yl)methylcarbamoyl)-1,3-phenylene bis(2,2-dimethylpropanoate)], the IC50 in test [1] and in test [2] was greater than 5 µM throughout.
In the case of `CC(C)(C)C(=O)Oc1ccc(C(=O)NCc2nc(-c3ccncc3)n[nH]2)cc1` [Example 38, 4-((3-(Pyridin-4-yl)-1H-1,2,4-triazol-5-yl)methylcarbamoyl)phenyl pivalate], the IC50 in test [1] and in test [2] was greater than 5 µM throughout.
Regarding `CC(C)(C)C(=O)Oc1ccc(C(=O)NCc2nc(-c3ccncc3)n[nH]2)c(O)c1` [Example 39, 3-Hydroxy-4-((3-(pyridin-4-yl)-1H-1,2,4-triazol-5-yl)methylcarbamoyl)phenyl pivalate], the IC50 was less than 5 µM in test [1] and greater than 5 µM in test [2].
With `COc1ccc(C(=O)NCc2nc(-c3ccncc3)n[nH]2)cc1C` [Example 40, 4-Methoxy-3-methyl-N-((3-(pyridin-4-yl)-1H-1,2,4-triazol-5-yl)methyl)benzamide], the IC50 in test [1] and in test [2] was greater than 5 µM in each case.
With `CC(C)c1cccc(C(=O)NCc2nc(-c3ccncc3)n[nH]2)c1O` [Example 41, 2-Hydroxy-3-isopropyl-N-((3-(pyridin-4-yl)-1H-1,2,4-triazol-5-yl)methyl)benzamide], the IC50 in test [1] and in test [2] was less than 5 µM throughout.
Take `O=C(NCc1nc(-c2ccncc2)n[nH]1)c1cccc2cc[nH]c12` [Example 42, N-((3-(Pyridin-4-yl)-1H-1,2,4-triazol-5-yl)methyl)-1H-indole-7-carboxamide]: the IC50 in test [1] and in test [2] was less than 5 µM throughout.
In the case of `O=C(NCc1nc(-c2ccncc2)n[nH]1)c1cccc2c1OCC2` [Example 43, N-((3-(pyridin-4-yl)-1H-1,2,4-triazol-5-yl)methyl)-2,3-dihydrobenzofuran-7-carboxamide], the IC50 is less than 5 µM in test [1] and greater than 5 µM in test [2].
With `CS(=O)(=O)Nc1ccc(C(=O)NCc2nc(-c3ccncc3)n[nH]2)cc1` [Example 44, 4-(Methylsulfonamido)-N-((3-(pyridin-4-yl)-1H-1,2,4-triazol-5-yl)methyl)benzamide], the concentration for half-maximal inhibition (IC50) in test [1] and in test [2] was greater than 5 µM throughout.
For the compound `Cc1cc(C(=O)NCc2nc(-c3ccncc3)n[nH]2)ccc1O` [Example 45, 4-Hydroxy-3-methyl-N-((3-(pyridin-4-yl)-1H-1,2,4-triazol-5-yl)methyl)benzamide], the IC50 in test [1] and in test [2] was less than 5 µM throughout.
On to `Cc1c(O)ccc(C(=O)NCc2nc(-c3ccncc3)n[nH]2)c1O` [Example 46, 2,4-Dihydroxy-3-methyl-N-((3-(pyridin-4-yl)-1H-1,2,4-triazol-5-yl)methyl)benzamide], for which the half-maximal inhibitory concentration (IC50) in test [1] and in test [2] was less than 5 µM throughout.
In the case of `Cc1ccsc1C(=O)NCc1nc(-c2ccncc2)n[nH]1` [Example 47, 3-Methyl-N-((3-(pyridin-4-yl)-1H-1,2,4-triazol-5-yl)methyl)thiophene-2-carboxamide], the IC50 in test [1] and in test [2] was less than 5 µM in each case.
For the compound `Cc1csc(C(=O)NCc2nc(-c3ccncc3)n[nH]2)c1` [Example 48, 4-Methyl-N-((3-(pyridin-4-yl)-1H-1,2,4-triazol-5-yl)methyl)thiophene-2-carboxamide], the IC50 in test [1] and in test [2] was less than 5 µM throughout.
With `Cc1ccc(C(=O)NCc2nc(-c3ccncc3)n[nH]2)s1` [Example 49, 5-Methyl-N-((3-(pyridin-4-yl)-1H-1,2,4-triazol-5-yl)methyl)thiophene-2-carboxamide], the IC50 in test [1] and in test [2] was less than 5 µM in each case.
As to `Cn1nc(-c2ccncc2)nc1CNC(=O)c1cccs1` [Example 50, N-((1-Methyl-3-(pyridin-4-yl)-1H-1,2,4-triazol-5-yl)methyl)thiophene-2-carboxamide], the IC50 in test [1] and in test [2] was greater than 5 µM each time.
In the case of `O=C(NCc1nc(-c2ccncc2)n[nH]1)c1ccc(CO)cc1` [Example 51, 4-(Hydroxymethyl)-N-((3-(pyridin-4-yl)-1H-1,2,4-triazol-5-yl)methyl)benzamide], the IC50 in test [1] and in test [2] was less than 5 µM throughout.
`CCc1cccc(C(=O)NCc2nc(-c3ccncc3)n[nH]2)c1O` [Example 52, 3-Ethyl-2-hydroxy-N-((3-(pyridin-4-yl)-1H-1,2,4-triazol-5-yl)methyl)benzamide]: the IC50 in test [1] and in test [2] was less than 5 µM throughout.
Regarding `c1ccc2c(NCc3nc(-c4ccncc4)n[nH]3)ncnc2c1` [Example 53, N-((3-(Pyridin-4-yl)-1H-1,2,4-triazol-5-yl)methyl)quinazolin-4-amine], the IC50 in test [1] and in test [2] was greater than 5 µM throughout.
Consider `O=S(=O)(NCc1nc(-c2ccncc2)n[nH]1)c1ccc(OCc2ccccc2)cc1` [Example 54, 4-(Benzyloxy)-N-((3-(pyridin-4-yl)-1H-1,2,4-triazol-5-yl)methyl)benzenesulfonamide], for which the IC50 in test [1] and in test [2] was greater than 5 µM in each case.
On to `O=S(=O)(NCc1nc(-c2ccncc2)n[nH]1)c1ccc(O)cc1` [Example 55, 4-Hydroxy-N-((3-(pyridin-4-yl)-1H-1,2,4-triazol-5-yl)methyl)benzenesulfonamide], for which the IC50 in test [1] and in test [2] was greater than 5 µM each time.
As for `c1ccc(COc2ccc(CNCc3nc(-c4ccncc4)n[nH]3)cc2)cc1` [Example 56, N-(4-(Benzyloxy)benzyl)-1-(3-(pyridin-4-yl)-1H-1,2,4-triazol-5-yl)methanamine], the IC50 in test [1] and in test [2] was greater than 5 µM in each case.
Turning to `CN(Cc1nc(-c2ccncc2)n[nH]1)C(=O)c1cccs1` [Example 57, N-Methyl-N-((3-(pyridin-4-yl)-1H-1,2,4-triazol-5-yl)methyl)thiophene-2-carboxamide], the IC50 in test [1] and in test [2] was greater than 5 µM throughout.
Take `CN(Cc1nc(-c2ccncc2)n[nH]1)C(=O)c1ccc(O)cc1O` [Example 58, 2,4-Dihydroxy-N-methyl-N-((3-(pyridin-4-yl)-1H-1,2,4-triazol-5-yl)methyl)benzamide]: the IC50 in test [1] and in test [2] was greater than 5 µM in each case.
With `c1ccc2c(NCc3nc(-c4ccncc4)n[nH]3)n[nH]c2c1` [Example 59, N-((3-(Pyridin-4-yl)-1H-1,2,4-triazol-5-yl)methyl)-1H-indazol-3-amine], the IC50 in test [1] and in test [2] was greater than 5 µM each time.
Take `O=C(c1cccs1)N1CCn2nc(-c3ccncc3)nc2C1` [Example 62, (2-(Pyridin-4-yl)-5,6-dihydro-[1,2,4]triazolo[1,5-a]pyrazin-7(8H)-yl)(thiophen-2-yl)methanone]: the IC50 in test [1] and in test [2] was greater than 5 µM each time.
Turning to `O=C(CCc1nc(-c2ccncc2)n[nH]1)c1ccc(O)cc1` [Example 63, 1-(4-hydroxyphenyl)-3-(3-(pyridin-4-yl)-1H-1,2,4-triazol-5-yl)propan-1-one], the IC50 in test [1] and in test [2] was less than 5 µM each time.
Consider `Oc1ccc(C(O)CCc2nc(-c3ccncc3)n[nH]2)cc1` (stereo not drawn) [Example 64, 4-(1-hydroxy-3-(3-(pyridin-4-yl)-1H-1,2,4-triazol-5-yl)propyl)phenol], for which the 50% inhibitory concentration (IC50) in test [1] and in test [2] was greater than 5 µM in each case.
`CC(NC(=O)c1cccs1)c1nc(-c2ccncc2)n[nH]1` (stereo not drawn) [Example 65, N-(1-(3-(Pyridin-4-yl)-1H-1,2,4-triazol-5-yl)ethyl)thiophene-2-carboxamide]: the IC50 in test [1] and in test [2] was less than 5 µM in each case.
Regarding `CC(NC(=O)c1ccc(O)cc1O)c1nc(-c2ccncc2)n[nH]1` (stereo not drawn) [Example 66, 2,4-Dihydroxy-N-(1-(3-(pyridin-4-yl)-1H-1,2,4-triazol-5-yl)ethyl)benzamide], the IC50 in test [1] and in test [2] was less than 5 µM in each case.
With `O=C(c1cccs1)N1CCCC1c1nc(-c2ccncc2)n[nH]1` (stereo not drawn) [Example 67, (2-(3-(pyridin-4-yl)-1H-1,2,4-triazol-5-yl)pyrrolidin-1-yl) (thiophen-2-yl)methanone], the IC50 in test [1] and in test [2] was greater than 5 µM in each case.
